According to patent US7511137B2, “Stereoisomers and stereoisomeric mixtures of 1-(2,4-pyrimidinediamino)-2-cyclopentanecarboxamide synthetic intermediates” (Rigel Pharmaceuticals, Inc., priority 2003, dated 2009):
Entries after “also recorded” stand apart in the source; their conditions may differ. Where two headings read alike, the source gives them in different places.

How the values were obtained:
Format in all cases: cell-based
[1] = test system: A549 (lung); experiment: in vitro antiproliferation assay, A549; conditions: Homo sapiens; A549 lung tumor cell line
Experimental: (§1) The four stereoisomers isomers of (1S, 2R)-1-(2,4-pyrimidinediamino)-2-cyclopentanecarboxamide (1), (2), (3) and (4) were prepared as described in Examples 1-4. The racemic mixture of the cis compound was prepared as described herein. The IC50 values of various compounds against different tumor cell lines were determined using standard in vitro antiproliferation assays. The tumor cell lines tested were as follows: A549 (lung); H1299 (lung); DU145 (prostate); HCT116 (colon/p53wt); and mirapaca.

[2] = test system: a variety of tumor cell lines; experiment: conventional antiproliferative assays, result in words
Experimental: Accordingly, stereoisomers of related 1-(2,4-pyrimidinediamino)-2-cyclopentanecarboxamides are expected to have analogous activity in antiproliferative assays.
as §1

[3] = test system: H1299 (lung); experiment: in vitro antiproliferation assay, H1299; conditions: Homo sapiens, NCI-H1299; H1299 lung tumor cell line
Experimental: as §1

[4] = test system: DU145 (prostate); experiment: in vitro antiproliferation assay, DU145; conditions: Homo sapiens, DU-145; DU145 prostate tumor cell line
Experimental: as §1

[5] = test system: HCT116 (colon/p53wt); experiment: in vitro antiproliferation assay, HCT116; conditions: Homo sapiens, HCT-116; HCT116 colon/p53wt tumor cell line
Experimental: as §1

| IC50 [1] [µM] | IC50 [3] [µM] | IC50 [4] [µM] | IC50 [5] [µM] | Structure (SMILES) | antiproliferative activity (in words) [2] | antiproliferative activity (in words) ([2]; listed as trans (1S, 2S)) |
| --- | --- | --- | --- | --- | --- | --- |
| < 5 | < 5 | < 5 | < 5 | Cc1cc(Nc2ncc(F)c(N[C@@H]3CCC[C@H]3C(N)=O)n2)ccc1N1CCN(C)CC1 [Compound 4, (1R, 2R)-1-(2,4-pyrimidinediamino)-2-cyclopentanecarboxamide] | active | – |
| < 5 | < 10 | – | – | Cc1cc(Nc2ncc(F)c(N[C@H]3CCC[C@H]3C(N)=O)n2)ccc1N1CCN(C)CC1 [Compound 2, (1R, 2S)-1-(2,4-pyrimidinediamino)-2-cyclopentanecarboxamide] | antiproliferative activity; also recorded: active | – |
| – | – | – | < 0.1 | Cc1cc(Nc2ncc(F)c(N[C@@H]3CCC[C@@H]3C(N)=O)n2)ccc1N1CCN(C)CC1 [Compound 1, (1S, 2R)-1-(2,4-pyrimidinediamino)-2-cyclopentanecarboxamide] | antiproliferative activity; also recorded: active | – |
| > 20 | > 20 | – | – | Cc1cc(Nc2ncc(F)c(N[C@H]3CCC[C@@H]3C(N)=O)n2)ccc1N1CCN(C)CC1 [Compound 3, (1S, 2S)-1-(2,4-pyrimidinediamino)-2-cyclopentanecarboxamide] | antiproliferative activity | inactive |
